Experimental data as given in US9499494B2, “Pyrimidine-2,4,6-triones for use in the treatment of amyotrophic lateral sclerosis” (Northwestern University, priority 2009, dated 2016).
Where a SMILES comes first, the peptide text is derived from it. The star is where a group is joined. Cbz = O=C(OCc1ccccc1)*

Columns and labels:
Type in all cases: cell-based
[1] = test system: PC12 cells that express mutant G93A SOD1 as a YFP fusion protein; test: high throughput cytotoxicity protection assay; settings: for EC50: Rattus norvegicus, PC-12, Table 1, fluorinated PYT compounds
Excerpt: Cultured cells are utilized to conduct high throughput assays for compounds that protect against mutant SOD1-induced cytotoxicity. Two assays are used: first, in the cytotoxicity protection assay, compounds are screened for their ability to protect cells from the cytotoxic effects of aggregated mutant SOD1, irrespective of mechanism of drug action. Second, in the protein aggregation assay, compounds are screened for their ability to reduce aggregation of mutant SOD1. The high throughput cytotoxicity protection assay is the primary screen and compounds active in the primary screen (and their analogs) move forward into the secondary screen for protein aggregation.
(§1) The high throughput cytotoxicity protection assay was carried out in PC12 cells that express mutant G93A SOD1 as a YFP fusion protein from a doxycycline-inducible promoter (Matsumoto et al., J. Cell. Biol. 2005, 171, 75). […] This idea was tested by examining the sensitivity of PC12 cells to SOD1 aggregates in the presence and absence of proteasome inhibitor MG132. PC12 cells expressing no SOD1, wild type SOD1, G85R SOD1 or G93A SOD1 were grown with or without MG132 (FIG. 1). […] In these cells, protein aggregation was detected after 24 h and loss of cell viability was detected at approximately 48 h. […] The ability of protein aggregates to induce cell death was examined by treating G93A SOD1-expressing cells with MG132 for 24 h, removing the MG132 by washing and assaying cell viability after another 24 h. Because the loss of cell viability was similar following MG132 removal (FIG. 1, part C), it is likely that mutant SOD1 aggregates contribute directly to cytotoxicity in PC12 cells.
(§2) PC12 cells expressing G93A SOD1 were treated with 100 nM MG132 with or without co-treatment with geldanamycin or radicicol. […] Statistical analysis of the data produced a Z′ value of 0.55, which would predict good performance as a positive control in a high throughput screen (Zhang et al. J. Biomol. Screen 1999, 4(2), 67-73).

[2] = test system: PC12 cells expressing G93A mutant SOD1; test: mutant SOD1 protein aggregation in G93A cells
Protocol: as §2
In PC12 cells that express wild-type SOD1, SOD1 was diffusely localized throughout the cell (Matsumoto et al. J. Cell. Biol 2005, 171(1), 75-85). […] Therefore, these effects are likely to be due to MG132-induced proteasome inhibition, and not due to an off-target effect of MG132.
The identification of a positive control is a crucial step in assay development. Thus, PC12 cells expressing G85R or G93A mutant SOD1 were treated with MG132 to induce protein aggregation, and then co-treated with candidate chemical suppressors of protein aggregation. […] Both compounds induce heat shock transcription factor HSF-1, which in turn induces the heat shock response (FIG. 4). Treatment with radicicol reduced the proportion of cells with aggregates from 75% to 25%, a sufficient difference to allow visual scoring for compounds with efficacy equal to or greater than radicicol.

[3] = test system: PC12 cells expressing G85R SOD1; test: mutant SOD1 direct protein aggregation assay
Excerpt: Compounds that are active in the above assay could theoretically protect against mutant SOD1-induced cytotoxicity through a number of mechanisms, including the following: 1) Compounds could nonspecifically block or reverse protein aggregation via chaperone induction, as observed for radicicol and geldanamycin 2) Compounds could block or reverse the aggregation of a specific aggregated protein form 3) Compounds could interfere with an event downstream of protein aggregation that plays a critical role in mutant SOD1-induced cytotoxicity (e.g., proteasome function). 4) Compounds could act directly on SOD1 in a manner that prevents mutant SOD1 aggregation. These possibilities were tested using an assay that directly measures protein aggregation. In addition, unlike the high throughput cytotoxicity protection assay, the protein aggregation assay is based on G85R SOD1; this broadens the scope of the screening strategy, and should eliminate compounds with highly specific activity (i.e., G93A SOD1 limited) against protein aggregation.
In PC12 cells that express wild-type SOD1, SOD1 was diffusely localized throughout the cell (Matsumoto et al. J. Cell. Biol 2005, 171(1), 75-85). […]
To allow this assay to be used in a high-throughput manner, a Cellomics Arrayscan® high content microscopy system was used for screening and quantification. […]

[4] = test system: PC12 cells expressing G93A SOD1; test: sensitivity of PC12 cells to proteasome inhibitor (cell viability)
Protocol: as §1

[5] = test system: PC12 cells expressing no SOD1, wild type SOD1 and G85R SOD1; test: as above; settings: Rattus norvegicus, PC-12
Protocol: as §1

[6] = G93A SOD1 cells treated with 100 nM MG132, co-treatment

Compound: O=C1CC(=O)N(CC(F)(F)c2ccc(F)c(F)c2)C(=O)N1CC(F)(F)c1ccc(F)c(F)c1
- EC50 [1]: 2 to 8 µM

Compound: O=C1CC(=O)N(CC(F)(F)c2ccc(Cl)c(Cl)c2)C(=O)N1CC(F)(F)c1ccc(Cl)c(Cl)c1
- EC50 [1]: 2 to 8 µM

Compound: C[C@@H]1C[C@H]2O[C@@H]2/C=C\C=C\C(=O)Cc2c(Cl)c(O)cc(O)c2C(=O)O1 [radicicol]
- formation of protein aggregates [2, 6]: reduced formation of protein aggregates
- cell viability [1, 6]: increased cell viability in a dose-dependent manner
- proportion of cells with aggregates after treatment ([3]; PC12 cells expressing G85R or G93A mutant SOD1, MG132-treated, 75% without co-treatment): 25%

Compound: O=C1CC(=O)N(CC(F)(F)c2ccc(Cl)cc2)C(=O)N1CC(F)(F)c1ccc(Cl)cc1
- EC50 [1]: 2 to 8 µM

Compound: O=C1CC(=O)N(CC(F)(F)c2ccc(C(F)(F)F)cc2)C(=O)N1CC(F)(F)c1ccc(C(F)(F)F)cc1
- EC50 [1]: 2 to 8 µM

Compound: CC(C)C[C@H](NC(=O)[C@H](Cc1ccccc1)NC(=O)c1cnccn1)B(O)O [bortezomib]
- sensitivity of PC12 cells to proteasome inhibition compared with MG132 [4]: Qualitatively similar results

Compound: CC(C)C[C@@H](C=O)NC(=O)[C@H](CC(C)C)NC(=O)[C@H](CC(C)C)NC(=O)OCc1ccccc1 [MG132] (Cbz-Leu-Leu-Leu-aldehyde)
- cells with protein aggregates ([2]; cells expressing G93A mutant SOD1 following treatment with MG132): ~75%
- fold more sensitive than cells expressing no SOD1, wild type SOD1 or G85R SOD1 ([4]; G93A SOD1 cells): approximately 5 fold
- IC50 ([4]; Rattus norvegicus, PC-12, read-out: IC50 (cell viability)): ~0.075 µM
- IC50 [5]: ~0.4 µM
- cells containing protein aggregates ([3]; cells expressing G85R SOD1 treated with MG132): up to 75%
